Common to all, as to assay type: cell-based
The test system of experiment [1] is HCC1806 cells. Put plainly: Cell proliferation assay (HCC1806). The settings on record: Homo sapiens, 168 h, 7 days. How it is done:
(§1) Cells are counted, diluted to desired density and 40 μL of cell suspension is added into each 384-well tissue-culture treated plates. Plates are incubated in Tissue Culture incubator at 37° C./5% C02 overnight.
(§2) Next day, 40 nl test compounds that are prepared from source plates are transferred to the seeded cells from overnight. Plates are incubated at 37° C./5% C02 for a total of 7 days. After 7-day incubation, plates are equilibrated to room temperature and 30 ul of Cell Counting-Lite is added to each well for a 30 min incubation followed by reading on EnVision.
(§3) The letter codes for the cell proliferation assay in A2780, HCC1806, and MDA-MB-436 cells include: A (<10 nM), B (>10-100 nM), C (>100-1000 nM), D (>1000-10000 nM), E (>10000 nM), and “-” is not tested.

Experiment [2] relates to A2780 cells. The experiment is described as follows: Cell proliferation assay (A2780). The settings on record: Homo sapiens, 168 h, 7 days. How it is done:
as §1, §2, §3

The test system of experiment [3] is Poly/Mono-ADP Ribose in U2OS cells. Put plainly: PAR in cell western assay (parylation) in U2OS cells. To be noted: Homo sapiens; U2OS cells, 6 hrs, 2 mM H2O2; read-out: Parylation (U2OS). On the procedure: U2OS cells are seeded at 2667 cells per well in 24 ul medium into poly-D lysine-coated 384 well plate and incubated in the TC incubator for O/N
The next day, test comps are diluted in a source plate and 6 μL of the diluted comp is added to the cell plate; mixed well and incubated for 6 hrs. DNA damage is induced with 2 mM H2O2 for 10 min. After discarding the medium, cells are fixed in ice cold Methanol at for 20 min at −20C. After a wash step at room temperature, cells are permeabilized with 0.05% NP-40 in PBS for 10 min, followed by wash steps. Cells are blocked with 1% BSA, at room temperature for 1 hr. Cells are stained with anti mono/polyADP ribose antibody (E6F6A, Cell signaling, 1:5000) in 1×PBS/1% BSA/0.05% Tween o/n at 4C.
Next Day, cells are washed and incubated with anti-Rabbit 800CV (Licor antibody, 1:500) and CellTag 700 (Licor, 1:800) in 1×PBS/1% BSA/0.05% Tween for 1 h. After washing, plates are scanned using LICOR and are quantified.
Parylation inhibition is reported as % control inhibition.
(§4) The letter codes for the PARP1-enzyme assay include: A (<1 nM), B (>1-10 nM), C (>10-100 nM), D (>100-1000 nM), E (>1000 nM), and “-” is not tested. The letter codes for the PARP trapping assay, and parylation assay include: A (<10 nM), B (>10-100 nM), C (>100-1000 nM), […], E (>10000 nM), and “-” is not tested.

The subject of experiment [4] is MDA-MB-436 cells. Put plainly: Cell proliferation assay (MDA-MB-436). To be noted: Homo sapiens, 168 h, 7 days. How it is done: as §1, §2, §3
The target of experiment [5] is PARP1 (Homo sapiens, UniProt P09874). The experiment is described as follows: PARP trapping assay in U2OS cells. Set-up: endogenous in cells; host or cells: U2OS. To be noted: U2OS cells, MMS, 4 hrs; read-out: PARP Trapping (U2OS). On the procedure:
U2OS cells are seeded at 15,000 cells/well in 90 ul medium and incubated in the TC incubator for overnight.
Next day, test compounds are prepared in a source plate along with addition of DNA damage reagent MMS simultaneously and 10 ul of the diluted mixture is added to the cell plate and incubated for 4 hrs under T/C conditions.
After 4 hrs, following aspiration and washing, add 100 ul of cold cytoskeleton removal buffer (0.5% Triton X-100) and incubated for 10 min. At the end of incubation, slowly the buffer is removed, and cells are fixed with ice cold MeOH for 15 min at −20C. Followed by wash steps, cells are blocked with 1×PBS/3% BSA/0.05% Tween for 1 h at room temperature.
Cells are stained with anti PARP1 antibody (abeam ab227244, 1:1000), in 1×PBS/1% BSA overnight at 4C.
Wash and add DAPI, scan cells in Celigo.
Data Analysis: DAPI staining is used to segment nuclei and AF488 fluorescence intensity per nucleus is measured.
as §4

Here are results for 20 compounds from patent US20250127907A1, “PARP INHIBITORS” (Stablix, Inc., priority 2023, published 2025).

SMILES strings stand for the structures. Some results are limits rather than exact numbers.

Sequence of PARP1 (P09874 whole entry): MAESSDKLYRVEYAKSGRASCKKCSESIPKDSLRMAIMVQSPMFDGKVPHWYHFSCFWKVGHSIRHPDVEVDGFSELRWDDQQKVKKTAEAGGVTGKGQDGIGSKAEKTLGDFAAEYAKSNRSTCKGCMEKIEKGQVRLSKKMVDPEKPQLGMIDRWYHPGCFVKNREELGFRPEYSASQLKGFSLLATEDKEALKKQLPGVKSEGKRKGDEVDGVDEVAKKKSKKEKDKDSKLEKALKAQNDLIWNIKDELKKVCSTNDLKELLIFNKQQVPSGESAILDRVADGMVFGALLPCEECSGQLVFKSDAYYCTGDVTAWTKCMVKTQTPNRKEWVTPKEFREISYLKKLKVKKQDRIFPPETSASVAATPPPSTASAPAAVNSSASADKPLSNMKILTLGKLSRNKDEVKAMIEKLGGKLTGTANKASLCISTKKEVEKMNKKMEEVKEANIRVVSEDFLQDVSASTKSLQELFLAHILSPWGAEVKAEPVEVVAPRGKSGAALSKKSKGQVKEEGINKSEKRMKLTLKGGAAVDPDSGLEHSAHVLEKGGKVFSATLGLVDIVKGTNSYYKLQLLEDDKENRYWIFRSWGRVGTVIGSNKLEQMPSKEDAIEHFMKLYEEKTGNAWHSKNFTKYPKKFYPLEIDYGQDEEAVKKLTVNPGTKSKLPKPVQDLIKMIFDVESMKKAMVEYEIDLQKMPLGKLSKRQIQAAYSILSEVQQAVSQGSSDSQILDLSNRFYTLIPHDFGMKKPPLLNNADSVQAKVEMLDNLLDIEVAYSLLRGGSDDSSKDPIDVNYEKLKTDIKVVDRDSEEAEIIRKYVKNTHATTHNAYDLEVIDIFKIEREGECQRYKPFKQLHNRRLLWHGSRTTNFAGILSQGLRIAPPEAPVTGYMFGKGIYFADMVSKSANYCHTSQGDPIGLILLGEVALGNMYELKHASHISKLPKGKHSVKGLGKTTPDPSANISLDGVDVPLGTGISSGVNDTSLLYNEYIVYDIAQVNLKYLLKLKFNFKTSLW

`CC(C)(C)C(=O)N1CCC[C@H](c2cccc(C(=O)N[C@@H](C(=O)N3CCC(OC4CCN(CC(=O)N5CCN(C(=O)c6cc(Cc7n[nH]c(=O)c8ccccc78)ccc6F)CC5)CC4)CC3)C3CCCCC3)c2F)C1` [Compound I-910]: the IC50 is 10 to 100 nM in experiment [1], 10 to 100 nM in experiment [2], 100 to 1000 nM in experiment [3] and < 10 nM in experiment [4].

Take `CCOc1cc(OC)ccc1CNCC(=O)N1CCCC(c2ccc(F)c(C(=O)N[C@@H](C(=O)N3CCN(CC4CCN(CC(=O)N5CCN(C(=O)c6cc(Cc7n[nH]c(=O)c8ccccc78)ccc6F)CC5)CC4)CC3)C3CCCCC3)c2)C1` (some centres unmarked) [Compound I-308]: the IC50 in experiment [2] fell in the range of 100 to 1000 nM; in experiment [3], 10 to 100 nM; in experiment [4], 100 to 1000 nM; in experiment [5], 10 to 100 nM.

Consider `O=C(N[C@@H](C(=O)N1CCC(OC2CCN(CC(=O)N3CCN(C(=O)c4cc(Cc5n[nH]c(=O)c6ccccc56)ccc4F)CC3)CC2)CC1)C1CCCCC1)c1cccc(C2CCCN(C(=O)C34CC(C3)C4)C2)c1F` (some centres unmarked) [Compound I-637], for which the IC50 in experiment [1] lay in the range of 10 to 100 nM; in experiment [3] it was 100 to 1000 nM; in experiment [4], 100 to 1000 nM; in experiment [5], 10 to 100 nM.

On to `O=C(N[C@@H](C(=O)N1CCN(CC(=O)N2CCN(C(=O)c3cc(Cc4n[nH]c(=O)c5ccccc45)ccc3F)CC2)CC1)C1CCCCC1)c1cccc(C2CCCN(C(=O)C3CC3)C2)c1F` (some centres unmarked) [Compound I-454], for which the IC50 lay within 10 to 100 nM in experiment [2], 10 to 100 nM in experiment [3], 100 to 1000 nM in experiment [4] and 100 to 1000 nM in experiment [5].

As to `O=C(N[C@@H](C(=O)N1CCN(CC23CCC(C(=O)N4CCN(C(=O)c5cc(Cc6n[nH]c(=O)c7ccccc67)ccc5F)CC4)(CC2)CO3)CC1)C1CCCCC1)c1cccc([C@@H]2CCCN(C(=O)CNC3CC3)C2)c1` [Compound I-382], the IC50 in experiment [2] was 10 to 100 nM; in experiment [3], 10 to 100 nM; in experiment [4], < 10 nM; in experiment [5], 10 to 100 nM.

On to `O=C(N[C@@H](C(=O)N1CCN(CC23CCC(C(=O)N4CCN(C(=O)c5cc(Cc6n[nH]c(=O)c7ccccc67)ccc5F)CC4)(CC2)CO3)CC1)C1CCCCC1)c1cccc(C2CCCN(C(=O)CNC3CC3)C2)c1` (some centres unmarked) [Compound I-380], for which the IC50 in experiment [2] was 10 to 100 nM; in experiment [3] it was 10 to 100 nM; in experiment [4] it was < 10 nM; in experiment [5], 10 to 100 nM.

Regarding `O=C(CN1CCC(OC2CCN(C(=O)c3ncc(-c4ccccc4)cc3F)CC2)CC1)N1CCN(C(=O)c2cc(Cc3n[nH]c(=O)c4ccccc34)ccc2F)CC1` [Compound I-709], the IC50 in experiment [1] is 10 to 100 nM; in experiment [3], < 10 nM; in experiment [4], < 10 nM; in experiment [5], 10 to 100 nM.

For `CC(C)(C)C(=O)N1CCCC(c2cccc(C(=O)N[C@@H](C(=O)N3CCC(OC4CCN(CC(=O)N5CCN(C(=O)c6cc(Cc7n[nH]c(=O)c8ccccc78)ccc6F)CC5)CC4)CC3)C3CCCCC3)c2F)C1` (some centres unmarked) [Compound I-661], the IC50 is 10 to 100 nM in experiment [1], 100 to 1000 nM in experiment [3], < 10 nM in experiment [4] and 10 to 100 nM in experiment [5].

Consider `CC1(C(=O)N2CCCC(c3cccc(C(=O)N[C@@H](C(=O)N4CCC(OC5CCN(CC(=O)N6CCN(C(=O)c7cc(Cc8n[nH]c(=O)c9ccccc89)ccc7F)CC6)CC5)CC4)C4CCCCC4)c3F)C2)CC1` (some centres unmarked) [Compound I-660], for which the IC50 was 10 to 100 nM in experiment [1], 100 to 1000 nM in experiment [3], < 10 nM in experiment [4] and 10 to 100 nM in experiment [5].

Turning to `O=C(CN1CCC(OC2CCN(C(=O)c3c(F)cc(-c4ccccc4)cc3F)CC2)CC1)N1CCN(C(=O)c2cc(Cc3n[nH]c(=O)c4ccccc34)ccc2F)CC1` [Compound I-634], the IC50 in experiment [1] was 10 to 100 nM; in experiment [3], < 10 nM; in experiment [4], < 10 nM; in experiment [5], 10 to 100 nM.

For `O=C(N[C@@H](C(=O)N1CCN(CC23CCC(C(=O)N4CCN(C(=O)c5cc(Cc6n[nH]c(=O)c7ccccc67)ccc5F)CC4)(CC2)CO3)CC1)C1CCCCC1)c1cccc([C@H]2CCCN(C(=O)CNC3CC3)C2)c1` (racemic) [Compound I-381], the IC50 in experiment [2] was 10 to 100 nM; in experiment [3], 100 to 1000 nM; in experiment [4] it was 10 to 100 nM; in experiment [5] it was < 10 nM.

As for `CCc1cccc(-c2cnc(C(=O)N3CCC(CN4CCN(CC(=O)N5CCN(C(=O)c6cc(Cc7n[nH]c(=O)c8ccccc78)ccc6F)CC5)CC4)CC3)c(NC(=O)CN3CCOCC3)c2)c1` [Compound I-333], the IC50 in experiment [2] lay within 100 to 1000 nM; in experiment [3], 10 to 100 nM; in experiment [4], 10 to 100 nM; in experiment [5], 100 to 1000 nM.

As for `O=C(N[C@@H](C(=O)N1CCC(OC2CCN(CC(=O)N3CCN(C(=O)c4cc(Cc5n[nH]c(=O)c6ccccc56)ccc4F)CC3)CC2)CC1)C1CCCCC1)c1ccc(N2CCN(C(=O)C3CC3)CC2)cc1F` [Compound I-745], the IC50 was 10 to 100 nM in experiment [1], 10 to 100 nM in experiment [3], < 10 nM in experiment [4] and 10 to 100 nM in experiment [5].

As for `O=C(N[C@@H](C(=O)N1CCN(CC(=O)N2CCN(C(=O)c3cc(Cc4n[nH]c(=O)c5ccccc45)ccc3F)CC2)CC1)C1CCCCC1)c1cc(C2CCCN(C(=O)C3CC3)C2)ccc1F` (some centres unmarked) [Compound I-453], the IC50 was in the range of 10 to 100 nM in experiment [2], 100 to 1000 nM in experiment [3], 10 to 100 nM in experiment [4] and 100 to 1000 nM in experiment [5].

Consider `O=C(N[C@@H](C(=O)N1CCC(CC(=O)N2CCN(C(=O)c3cc(Cc4n[nH]c(=O)c5ccccc45)ccc3F)CC2)CC1)C1CCCCC1)c1cccc(C2CCCN(C(=O)C3CC3)C2)c1F` (some centres unmarked) [Compound I-715], for which the IC50 in experiment [1] is 10 to 100 nM; in experiment [3], 10 to 100 nM; in experiment [4], < 10 nM; in experiment [5] it was 10 to 100 nM.

With `CCc1cccc(-c2cnc(C(=O)N3CCC(CC(=O)N4CCN(C(=O)c5cc(Cc6n[nH]c(=O)c7ccccc67)ccc5F)CC4)CC3)c(NC(=O)CNCc3cccc(C)c3)c2)c1` [Compound I-412], the IC50 was 10 to 100 nM in experiment [2], 100 to 1000 nM in experiment [3], < 10 nM in experiment [4] and 10 to 100 nM in experiment [5].

On to `CCc1cccc(-c2cc(N)c(C(=O)N3CCC(CN4CCN(CC(=O)N5CCN(C(=O)c6cc(Cc7n[nH]c(=O)c8ccccc78)ccc6F)CC5)CC4)CC3)c(F)c2)c1` [Compound I-409], for which the IC50 in experiment [2] is 100 to 1000 nM; in experiment [3], 100 to 1000 nM; in experiment [4], < 10 nM; in experiment [5] it was 100 to 1000 nM.

As for `CC1(C)CC(c2ccc(C(=O)N[C@@H](C(=O)N3CCC(OC4CCN(CC(=O)N5CCN(C(=O)c6cc(Cc7n[nH]c(=O)c8ccccc78)ccc6F)CC5)CC4)CC3)C3CCCCC3)c(F)c2)CCN1C(=O)C1CC1` (some centres unmarked) [Compound I-743], the IC50 in experiment [1] is 10 to 100 nM; in experiment [3], 10 to 100 nM; in experiment [4], < 10 nM; in experiment [5], 10 to 100 nM.

On to `CCc1cccc(-c2cnc(C(=O)N3CCC(CN4CCN(CC(=O)N5CCN(C(=O)c6cc(Cc7n[nH]c(=O)c8ccccc78)ccc6F)CC5)CC4)CC3)c(C#N)c2)c1` [Compound I-419], for which the IC50 in experiment [2] is 10 to 100 nM; in experiment [3] it was 10 to 100 nM; in experiment [4], < 10 nM; in experiment [5], 100 to 1000 nM.

Regarding `O=C(CN1CCC(OC2CCN(C(=O)c3c(F)cc(-c4ccncc4)cc3F)CC2)CC1)N1CCN(C(=O)c2cc(Cc3n[nH]c(=O)c4ccccc34)ccc2F)CC1` [Compound I-727], the IC50 was 10 to 100 nM in experiment [1], < 10 nM in experiment [3], < 10 nM in experiment [4] and < 10 nM in experiment [5].
